Molecular target: T1, human LXRβ (Homo sapiens, UniProt P55055)
T1 construct: biotin (biotinylated); made in house; host or cells: E. coli
T1 sequence (P55055 1-460): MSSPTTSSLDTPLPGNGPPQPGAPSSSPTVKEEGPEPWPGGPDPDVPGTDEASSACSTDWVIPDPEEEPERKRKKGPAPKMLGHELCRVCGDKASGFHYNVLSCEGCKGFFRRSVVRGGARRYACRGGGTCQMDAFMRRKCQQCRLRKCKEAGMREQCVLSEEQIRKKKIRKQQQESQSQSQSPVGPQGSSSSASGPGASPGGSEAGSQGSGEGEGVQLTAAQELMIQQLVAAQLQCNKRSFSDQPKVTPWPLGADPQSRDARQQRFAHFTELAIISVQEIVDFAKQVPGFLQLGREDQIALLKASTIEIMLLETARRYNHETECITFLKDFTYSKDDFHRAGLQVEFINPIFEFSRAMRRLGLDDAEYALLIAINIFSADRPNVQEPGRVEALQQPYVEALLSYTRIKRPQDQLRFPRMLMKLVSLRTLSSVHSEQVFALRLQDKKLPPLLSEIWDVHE
Assay: Ligand-binding test procedure for human LXRβ (3H T0901317 tracer, flash plates)
Conditions: biotinylated hLXRβ, tracer 3H T0901317, +4° C. over night
Experimental: I. Ligand-Binding Test Procedure for Human LXRβ.
Receptor source: E. coli extracted from cells expressing biotinylated hLXRβ. Extract was made in a similar buffer as above, but with 50 mM TRIS.
Washed streptavidin and coated flash plates with wash buffer. Diluted receptor extract to give Bmax˜4000 cpm and add to the wells. Wrapped the plates in aluminum foil and stored them at +4° C. overnight.
Made a dilution series in DMSO of the test ligands. Made a 5 nM solution of the radioactive tracer in buffer. Mixed 250 μl diluted tracer with 5 μl of the test ligand from each concentration of the dilution series. Washed the receptor-coated flash plates. Added 200 μl per well of the ligand/radiolabel mixture to the receptor-coated flash plates. Wrapped the plates in aluminum foil and incubate at +4° C. over night.
Aspirated wells, and washed the flashed plates. Sealed the plate.
Measured the remaining radioactivity in the plate.

Row | Compound | IC50 [nM]
1 | CS(=O)(=O)c1cccc(Oc2cccc(-c3cnc4cccc(Cl)c4n3)c2)c1 [Example 13, 8-chloro-2-{3-[3-(methylsulfonyl)phenoxy]phenyl}quinoxaline] | > 1000
2 | CS(=O)(=O)c1cccc(Oc2cccc(-c3cnc4c(C(F)(F)F)cccc4n3)c2)c1 [Example 14, 2-{3-[3-(methylsulfonyl)phenoxy]phenyl}-5-(trifluoromethyl)quinoxaline] | > 1000
3 | CCS(=O)(=O)c1cccc(Oc2ccc(-c3nc4c(C(F)(F)F)cccc4nc3C)cc2)c1 [Example 15, 3-{4-[3-(ethylsulfonyl)phenoxy]phenyl}-2-methyl-5-(trifluoromethyl)quinoxaline] | > 1000
4 | CCS(=O)(=O)c1cccc(Oc2cccc(-c3cnc4cccc(C(F)(F)F)c4n3)c2)c1 [Example 16, 2-{3-[3-(ethylsulfonyl)phenoxy]phenyl}-8-(trifluoromethyl)quinoxaline] | > 1000
5 | CC(C)CS(=O)(=O)c1cccc(Oc2cccc(-c3cnc4cccc(C(F)(F)F)c4n3)c2)c1 [Example 17, 2-{3-[3-(isobutylsulfonyl)phenoxy]phenyl}-8-(trifluoromethyl)quinoxaline] | > 1000
6 | Cc1nc2c(C(F)(F)F)cccc2nc1-c1ccc(-c2ccc(S(C)(=O)=O)cc2)cc1 [Example 18, 3-methyl-2-[4′-(methylsulfonyl)biphenyl-4-yl]-5-(trifluoromethyl)quinoxaline] | > 1000
7 | Cc1nc2c(C(F)(F)F)cccc2nc1-c1cccc(-c2cccc(S(C)(=O)=O)c2)c1 [Example 19, 3-methyl-2-[3′-(methylsulfonyl)biphenyl-3-yl]-5-(trifluoromethyl)quinoxaline] | > 1000
8 | Cc1nc2c(C(F)(F)F)cccc2nc1-c1cccc(-c2ccc(S(C)(=O)=O)cc2)c1 [Example 20, 3-methyl-2-[4′-(methylsulfonyl)biphenyl-3-yl]-5-(trifluoromethyl)quinoxaline] | > 1000
9 | Cc1nc2c(C(F)(F)F)cccc2nc1-c1ccc(-c2ccccc2S(C)(=O)=O)cc1 [Example 21, 3-methyl-2-[2′-(methylsulfonyl)biphenyl-4-yl]-5-(trifluoromethyl)quinoxaline] | > 1000
10 | CS(=O)(=O)c1cccc(-c2ccc(-c3cnc4c(C(F)(F)F)cccc4n3)cc2)c1 [Example 22, 2-[3′-(methylsulfonyl)biphenyl-4-yl]-5-(trifluoromethyl)quinoxaline] | > 1000
11 | CS(=O)(=O)c1ccc(-c2ccc(-c3cnc4cccc(C(F)(F)F)c4n3)cc2)cc1 [Example 23, 2-[4′-(methylsulfonyl)biphenyl-4-yl]-8-(trifluoromethyl)quinoxaline] | > 1000

Next, values leading:

Row | IC50 [nM] | Compound
12 | > 1000 | CS(=O)(=O)c1ccccc1-c1ccc(-c2cnc3cccc(C(F)(F)F)c3n2)cc1 [Example 24, 2-[2′-(methylsulfonyl)biphenyl-4-yl]-8-(trifluoromethyl)quinoxaline]
13 | > 1000 | CS(=O)(=O)c1cccc(-c2ccc(-c3cnc4cccc(C(F)(F)F)c4n3)cc2)c1 [Example 25, 2-[3′-(methylsulfonyl)biphenyl-4-yl]-8-(trifluoromethyl)quinoxaline]
14 | > 1000 | CS(=O)(=O)c1cccc(-c2ccc(-c3nc4ccccc4nc3C(F)(F)F)cc2)c1 [Example 26, 2-[3′-(methylsulfonyl)biphenyl-4-yl]-3-(trifluoromethyl)quinoxaline]
15 | > 1000 | CS(=O)(=O)c1cccc(Oc2ccc(-c3nc4ccccc4nc3C(F)(F)F)cc2)c1 [Example 27, 2-{4-[3-(methylsulfonyl)phenoxy]phenyl}-3-(trifluoromethyl)quinoxaline]
16 | > 1000 | Cc1nc2c(C(F)(F)F)cccc2nc1-c1ccc(-c2cccc(S(C)(=O)=O)c2)cc1F [Example 28, 2-[3-fluoro-3′-(methylsulfonyl)biphenyl-4-yl]-3-methyl-5-(trifluoromethyl)quinoxaline]
17 | > 1000 | Cc1nc2cccc(C(F)(F)F)c2nc1-c1ccc(Oc2cccc(S(C)(=O)=O)c2)cc1F [Example 29, 3-{2-fluoro-4-[3-(methylsulfonyl)phenoxy]phenyl}-2-methyl-5-(trifluoromethyl)quinoxaline]

Source: US20100120778A1, “QUINOXALINE-BASED LXR MODULATORS” (Wyeth, priority 2008, published 2010)
